{"source": "ChEMBL document CHEMBL1201862", "about": "“PubChem BioAssay data set” (2004)", "key": {"Protein RecA": {"molecular_target": "T1, Protein RecA (Mycobacterium tuberculosis, UniProt P9WHJ3)", "T1 sequence (P9WHJ3 whole entry)": "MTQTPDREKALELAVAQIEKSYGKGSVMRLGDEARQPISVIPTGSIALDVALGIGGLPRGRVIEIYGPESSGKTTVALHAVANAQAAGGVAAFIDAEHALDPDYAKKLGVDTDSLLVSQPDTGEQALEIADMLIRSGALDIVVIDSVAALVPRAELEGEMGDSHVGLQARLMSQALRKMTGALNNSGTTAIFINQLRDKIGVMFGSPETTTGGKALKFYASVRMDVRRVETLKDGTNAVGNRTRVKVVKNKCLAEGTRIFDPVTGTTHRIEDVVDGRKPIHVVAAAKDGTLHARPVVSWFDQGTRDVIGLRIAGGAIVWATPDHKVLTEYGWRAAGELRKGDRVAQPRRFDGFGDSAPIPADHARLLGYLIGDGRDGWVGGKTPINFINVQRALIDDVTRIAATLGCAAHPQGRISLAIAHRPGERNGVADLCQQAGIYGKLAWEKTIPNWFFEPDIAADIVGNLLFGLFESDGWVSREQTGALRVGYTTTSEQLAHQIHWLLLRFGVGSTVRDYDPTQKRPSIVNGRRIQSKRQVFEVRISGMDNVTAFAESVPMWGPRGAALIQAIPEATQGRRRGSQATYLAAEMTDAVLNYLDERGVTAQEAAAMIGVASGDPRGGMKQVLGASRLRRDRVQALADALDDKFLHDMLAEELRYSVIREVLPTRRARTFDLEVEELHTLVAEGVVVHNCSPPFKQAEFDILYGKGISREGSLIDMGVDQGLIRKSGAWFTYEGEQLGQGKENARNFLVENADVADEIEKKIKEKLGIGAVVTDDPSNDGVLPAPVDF", "test": "Fluorescence Cell-Free Homogeneous Dose Retest to Identify Inhibitors of RecA-Intein Splicing Activity. [Related pubchem assays (depositor defined):AID2097, AID2223, AID489010, AID492950]", "format": "functional"}, "[1]": {"test": "cytotoxicity in OVCAR4 cells, dose response, cytotoxicity control for PAX8 inhibitor project, cell-based, plate reader, dry powder, SA11 (AID 743150)", "format": "functional", "settings": "OVCAR-4"}, "[2]": {"molecular_target": "T2, Ubiquitin-conjugating enzyme E2 N (Homo sapiens, UniProt P61088)", "T2 sequence (P61088 whole entry)": "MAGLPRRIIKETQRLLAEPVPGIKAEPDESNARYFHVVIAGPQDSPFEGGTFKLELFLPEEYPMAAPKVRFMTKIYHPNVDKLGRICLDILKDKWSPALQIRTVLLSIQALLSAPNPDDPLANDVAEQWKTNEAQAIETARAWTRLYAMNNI", "format": "functional"}, "CHO": {"tested_on": "CHO", "test": "cytotoxicity in TLR9-MyD88 CHO cells, dose response, cytotoxicity control for TLR9-MyD88 binding inhibitor project, cell-based, luminescence (AID 588339);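 also: CHO cells stably coexpressing TLR9 and MyD88 fusions from primary screen; compound exposure lasted 48 hours before viability readout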", "format": "functional, hamster", "settings": "Cricetulus griseus"}, "[3]": {"test": "NIH:OVCAR-3 ovarian cancer cell cytotoxicity, dose response, PAX8 inhibitor project, plate reader, dry powder samples (AID 743044)", "format": "functional, cell-based"}, "[4]": {"test": "control 3'UTR Renilla luciferase suppression, dose response, counter-screen for Shn3 inhibitor project, cell-based, Clone20-Shn3RL, cherry-picked (AID 624133)", "format": "functional"}, "[5]": {"test": "cytotoxicity in COV434 cells, dose response, cytotoxicity control for PAX8 inhibitor project, cell-based, plate reader, dry powder, SA7 (AID 743145)", "format": "functional"}, "Bcl-2-related protein A1": {"molecular_target": "T3, Bcl-2-related protein A1 (Mus musculus, UniProt Q07440)", "T3 sequence (Q07440 whole entry)": "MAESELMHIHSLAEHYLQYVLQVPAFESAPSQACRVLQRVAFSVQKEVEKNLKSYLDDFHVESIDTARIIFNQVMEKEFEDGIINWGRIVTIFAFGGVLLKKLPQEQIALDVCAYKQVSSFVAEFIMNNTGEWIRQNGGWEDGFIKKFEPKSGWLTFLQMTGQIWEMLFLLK", "format": "functional"}, "[6]": {"molecular_target": "T2, Ubiquitin-conjugating enzyme E2 N", "format": "functional", "remark": "listed apart in the source"}, "[7]": {"test": "cytotoxicity in COV362 ovarian cancer cells, dose response, cytotoxicity control for PAX8 inhibitor project, cell-based, plate reader, dry powder, SA12 (AID 743144)", "format": "functional"}, "[8]": {"test": "HepG2 cell cytotoxicity, dose response, cytotoxicity control for Shn3 inhibitor project, CellTiter-Glo, cherry-picked (AID 624134)", "format": "functional, cell-based"}, "[9]": {"test": "non-specific cell cytotoxicity, dose response, cytotoxicity control for PAX8 inhibitor project, plate reader, dry powder samples (AID 743021)", "format": "functional, cell-based"}, "[10]": {"test": "A2780 ovarian cancer cell cytotoxicity, dose response, cytotoxicity control, plate reader, dry powder samples (AID 743046)", "format": "functional, cell-based"}, "[11]": {"molecular_target": "T4, Replicative DNA helicase DnaB (Mycobacterium tuberculosis, UniProt P9WMR3)", "T4 sequence (P9WMR3 whole entry)": "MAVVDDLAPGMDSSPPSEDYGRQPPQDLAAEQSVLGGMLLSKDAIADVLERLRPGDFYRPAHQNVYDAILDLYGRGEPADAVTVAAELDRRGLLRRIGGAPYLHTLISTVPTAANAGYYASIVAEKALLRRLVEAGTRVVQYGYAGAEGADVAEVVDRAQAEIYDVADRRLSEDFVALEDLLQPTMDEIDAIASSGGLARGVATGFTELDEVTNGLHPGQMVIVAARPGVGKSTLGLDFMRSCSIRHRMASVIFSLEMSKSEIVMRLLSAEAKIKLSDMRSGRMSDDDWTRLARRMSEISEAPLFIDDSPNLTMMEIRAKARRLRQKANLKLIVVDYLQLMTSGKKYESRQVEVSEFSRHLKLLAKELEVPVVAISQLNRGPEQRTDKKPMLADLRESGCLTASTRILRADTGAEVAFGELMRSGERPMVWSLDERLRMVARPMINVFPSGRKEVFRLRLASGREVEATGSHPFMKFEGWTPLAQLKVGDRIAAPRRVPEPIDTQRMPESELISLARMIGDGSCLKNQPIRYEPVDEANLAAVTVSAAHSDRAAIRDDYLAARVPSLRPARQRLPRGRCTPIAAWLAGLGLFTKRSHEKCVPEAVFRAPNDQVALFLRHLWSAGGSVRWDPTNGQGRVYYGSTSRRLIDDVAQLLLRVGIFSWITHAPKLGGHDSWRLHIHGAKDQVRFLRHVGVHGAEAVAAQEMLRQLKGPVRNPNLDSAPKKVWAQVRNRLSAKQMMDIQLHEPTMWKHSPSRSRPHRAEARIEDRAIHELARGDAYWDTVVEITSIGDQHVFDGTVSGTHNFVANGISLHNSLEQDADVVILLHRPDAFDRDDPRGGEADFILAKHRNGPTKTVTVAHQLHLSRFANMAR", "test": "DnaB intein splicing inhibitors, dose response, biochemical, cell-free fluorescence (AID 449749)", "format": "functional"}, "[12]": {"test": "IOSE-T80 ovarian epithelial cell cytotoxicity, dose response, cytotoxicity control for PAX8 inhibitor project, plate reader, dry powder samples (AID 743045)", "format": "functional, cell-based"}, "[13]": {"test": "cytotoxicity dependent on PAX8, dose response, cell-based, plate reader, dry powder (AID 743049)", "format": "functional"}, "[14]": {"molecular_target": "ATP-binding cassette sub-family B member 6 (Homo sapiens, UniProt Q9NP58)", "sequence (Q9NP58 whole entry)": "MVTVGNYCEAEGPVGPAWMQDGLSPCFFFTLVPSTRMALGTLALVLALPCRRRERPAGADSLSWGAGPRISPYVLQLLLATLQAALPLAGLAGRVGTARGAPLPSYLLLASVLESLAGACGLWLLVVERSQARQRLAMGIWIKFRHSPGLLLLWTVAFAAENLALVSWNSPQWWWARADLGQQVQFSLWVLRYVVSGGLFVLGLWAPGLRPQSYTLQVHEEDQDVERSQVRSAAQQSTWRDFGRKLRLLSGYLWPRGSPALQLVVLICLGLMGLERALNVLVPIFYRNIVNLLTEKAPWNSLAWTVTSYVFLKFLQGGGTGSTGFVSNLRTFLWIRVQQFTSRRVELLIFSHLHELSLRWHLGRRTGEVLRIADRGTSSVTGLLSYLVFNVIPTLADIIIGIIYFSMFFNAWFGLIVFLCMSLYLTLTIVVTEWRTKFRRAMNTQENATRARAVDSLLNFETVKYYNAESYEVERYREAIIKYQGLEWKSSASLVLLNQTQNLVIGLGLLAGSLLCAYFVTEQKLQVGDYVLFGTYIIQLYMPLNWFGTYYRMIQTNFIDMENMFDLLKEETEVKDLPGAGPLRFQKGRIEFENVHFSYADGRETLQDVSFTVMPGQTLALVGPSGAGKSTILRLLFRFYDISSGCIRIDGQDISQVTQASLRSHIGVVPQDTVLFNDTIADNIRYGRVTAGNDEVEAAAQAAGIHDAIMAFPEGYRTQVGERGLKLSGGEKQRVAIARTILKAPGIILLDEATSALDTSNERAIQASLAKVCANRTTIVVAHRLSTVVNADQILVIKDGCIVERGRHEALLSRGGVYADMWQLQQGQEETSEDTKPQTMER", "test": "ABCB6 transporter inhibitors, porphyrin accumulation, dose response, flow cytometry, K562-ABCB6 cells, cherry pick 02 (AID 624487)", "format": "functional", "settings": "read-out: EC50_MICROM"}, "[15]": {"test": "IGROV1 ovarian cancer cell cytotoxicity, dose response, PAX8 inhibitor project, plate reader, dry powder samples (AID 743043)", "format": "functional, cell-based", "settings": "IGROV-1"}, "[16]": {"test": "Shn3 3'UTR reporter inhibitors, dose response, cell-based, Clone20 osteoblasts, firefly luciferase, cherry-picked (AID 624132)", "format": "functional"}, "[17]": {"molecular_target": "T5, Microphthalmia-associated transcription factor (Homo sapiens, UniProt O75030)", "T5 sequence (O75030 whole entry)": "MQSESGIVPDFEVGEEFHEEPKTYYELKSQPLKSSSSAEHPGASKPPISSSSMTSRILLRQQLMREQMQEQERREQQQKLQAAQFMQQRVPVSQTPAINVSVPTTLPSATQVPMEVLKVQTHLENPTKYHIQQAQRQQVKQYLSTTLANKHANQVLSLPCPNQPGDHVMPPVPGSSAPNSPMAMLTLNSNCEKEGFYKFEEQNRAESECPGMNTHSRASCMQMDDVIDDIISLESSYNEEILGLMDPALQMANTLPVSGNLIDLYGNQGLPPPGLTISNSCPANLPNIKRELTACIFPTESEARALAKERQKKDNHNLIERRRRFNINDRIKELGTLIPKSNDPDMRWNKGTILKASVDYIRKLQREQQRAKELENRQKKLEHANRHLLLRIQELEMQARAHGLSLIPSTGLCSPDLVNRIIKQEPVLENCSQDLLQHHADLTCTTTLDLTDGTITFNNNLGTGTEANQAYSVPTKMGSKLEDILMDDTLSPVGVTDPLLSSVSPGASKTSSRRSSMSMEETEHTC", "test": "TRPM1 promoter luciferase signal decrease, dose response, MITF inhibitor project, cell-based, SK-MEL-5, cherry-picked, set 3 (AID 493073)", "format": "functional"}, "Beta Lactamase": {"molecular_target": "Beta Lactamase (Pseudomonas aeruginosa, UniProt Q932Y6)", "sequence (Q932Y6 whole entry)": "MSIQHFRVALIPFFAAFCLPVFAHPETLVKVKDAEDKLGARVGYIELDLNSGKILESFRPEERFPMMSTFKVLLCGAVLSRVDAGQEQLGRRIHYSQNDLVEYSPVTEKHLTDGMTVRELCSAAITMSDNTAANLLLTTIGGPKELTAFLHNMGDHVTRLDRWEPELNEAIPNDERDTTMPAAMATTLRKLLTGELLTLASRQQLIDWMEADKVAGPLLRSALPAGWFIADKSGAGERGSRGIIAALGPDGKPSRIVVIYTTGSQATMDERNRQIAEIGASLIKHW", "test": "beta-lactamase reporter inhibitor potency, dose response, artefact control for TLR9-MyD88 binding inhibitor project, BLA reporter cells, FRET fluorescence (AID 588341)", "format": "cell-based"}, "[18]": {"test": "cytotoxicity in OV-90 ovarian cancer cells, dose response, PAX8 inhibitor project, cell-based, plate reader, dry powder, SA8 (AID 743149)", "format": "functional"}, "Paired box protein Pax-8": {"molecular_target": "Paired box protein Pax-8 (Homo sapiens, UniProt Q06710)", "sequence (Q06710 whole entry)": "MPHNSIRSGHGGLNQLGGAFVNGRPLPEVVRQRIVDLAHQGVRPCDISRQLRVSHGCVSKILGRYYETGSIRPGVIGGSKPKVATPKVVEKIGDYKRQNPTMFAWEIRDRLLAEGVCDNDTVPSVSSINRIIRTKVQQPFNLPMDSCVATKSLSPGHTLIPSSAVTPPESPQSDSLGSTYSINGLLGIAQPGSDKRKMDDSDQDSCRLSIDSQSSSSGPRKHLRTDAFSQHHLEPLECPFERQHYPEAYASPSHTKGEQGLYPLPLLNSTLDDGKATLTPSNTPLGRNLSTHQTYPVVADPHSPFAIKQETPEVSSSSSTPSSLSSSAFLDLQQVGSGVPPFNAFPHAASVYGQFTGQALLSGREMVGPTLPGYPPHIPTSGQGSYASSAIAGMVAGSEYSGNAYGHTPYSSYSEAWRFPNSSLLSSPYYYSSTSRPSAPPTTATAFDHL", "test": "inhibitors of PAX8-driven TPO luciferase reporter, dose response, RMG-I cells, cherry-pick (AID 687027);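 also: luciferase reporter driven by Pax8 target thyroperoxidase promoter measured by SteadyGlo luminescence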", "format": "functional, cell-based"}, "Candida albicans [19]": {"tested_on": "Candida albicans", "test": "growth inhibition of azole-resistant C. albicans, dose response, CaCi-8 strain, Alamar Blue, dry powder, set 3 (AID 488905)", "format": "functional, organism-based"}, "Candida albicans [20]": {"tested_on": "Candida albicans", "test": "reversal of fluconazole resistance in C. albicans, dose response, CaCi-2 strain, Alamar Blue, dry powder, set 3 (AID 488907)", "format": "functional, organism-based"}, "Phospholipase D1": {"molecular_target": "Phospholipase D1 (Homo sapiens, UniProt Q13393)", "sequence (Q13393 whole entry)": "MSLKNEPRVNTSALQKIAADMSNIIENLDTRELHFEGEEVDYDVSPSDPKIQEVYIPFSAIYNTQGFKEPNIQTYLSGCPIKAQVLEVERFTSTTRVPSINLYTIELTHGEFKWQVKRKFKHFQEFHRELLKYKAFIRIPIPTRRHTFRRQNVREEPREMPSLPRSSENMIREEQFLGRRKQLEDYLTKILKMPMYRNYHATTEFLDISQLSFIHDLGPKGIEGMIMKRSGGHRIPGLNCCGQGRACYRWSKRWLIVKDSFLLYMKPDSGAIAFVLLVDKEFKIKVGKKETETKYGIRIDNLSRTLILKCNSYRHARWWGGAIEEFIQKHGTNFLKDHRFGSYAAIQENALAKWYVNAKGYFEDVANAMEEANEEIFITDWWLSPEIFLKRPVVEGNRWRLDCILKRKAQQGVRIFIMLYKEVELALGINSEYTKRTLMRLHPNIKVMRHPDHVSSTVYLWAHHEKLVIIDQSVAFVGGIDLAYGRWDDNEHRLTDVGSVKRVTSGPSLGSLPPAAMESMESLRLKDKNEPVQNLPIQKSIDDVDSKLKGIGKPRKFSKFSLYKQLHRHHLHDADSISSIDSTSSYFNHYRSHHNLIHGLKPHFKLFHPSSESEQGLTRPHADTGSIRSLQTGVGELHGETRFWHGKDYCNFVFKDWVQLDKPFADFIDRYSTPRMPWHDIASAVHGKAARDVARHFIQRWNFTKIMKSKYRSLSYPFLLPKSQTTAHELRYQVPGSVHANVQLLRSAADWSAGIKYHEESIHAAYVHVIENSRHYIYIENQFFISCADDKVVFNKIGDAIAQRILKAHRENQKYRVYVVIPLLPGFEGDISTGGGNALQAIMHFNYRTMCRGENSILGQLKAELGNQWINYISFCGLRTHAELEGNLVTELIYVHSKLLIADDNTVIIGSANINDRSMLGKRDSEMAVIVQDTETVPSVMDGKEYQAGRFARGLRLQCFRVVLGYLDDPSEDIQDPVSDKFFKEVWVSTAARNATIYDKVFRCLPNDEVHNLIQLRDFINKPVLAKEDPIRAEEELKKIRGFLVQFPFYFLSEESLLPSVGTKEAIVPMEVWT", "test": "PLD1 inhibitor potency in cells, dose response (AID 602151);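 also: cellular PLD1 assay in Calu-1 cells stimulated with PMA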", "format": "functional"}, "Phospholipase D2": {"molecular_target": "Phospholipase D2 (Homo sapiens, UniProt O14939)", "sequence (O14939 whole entry)": "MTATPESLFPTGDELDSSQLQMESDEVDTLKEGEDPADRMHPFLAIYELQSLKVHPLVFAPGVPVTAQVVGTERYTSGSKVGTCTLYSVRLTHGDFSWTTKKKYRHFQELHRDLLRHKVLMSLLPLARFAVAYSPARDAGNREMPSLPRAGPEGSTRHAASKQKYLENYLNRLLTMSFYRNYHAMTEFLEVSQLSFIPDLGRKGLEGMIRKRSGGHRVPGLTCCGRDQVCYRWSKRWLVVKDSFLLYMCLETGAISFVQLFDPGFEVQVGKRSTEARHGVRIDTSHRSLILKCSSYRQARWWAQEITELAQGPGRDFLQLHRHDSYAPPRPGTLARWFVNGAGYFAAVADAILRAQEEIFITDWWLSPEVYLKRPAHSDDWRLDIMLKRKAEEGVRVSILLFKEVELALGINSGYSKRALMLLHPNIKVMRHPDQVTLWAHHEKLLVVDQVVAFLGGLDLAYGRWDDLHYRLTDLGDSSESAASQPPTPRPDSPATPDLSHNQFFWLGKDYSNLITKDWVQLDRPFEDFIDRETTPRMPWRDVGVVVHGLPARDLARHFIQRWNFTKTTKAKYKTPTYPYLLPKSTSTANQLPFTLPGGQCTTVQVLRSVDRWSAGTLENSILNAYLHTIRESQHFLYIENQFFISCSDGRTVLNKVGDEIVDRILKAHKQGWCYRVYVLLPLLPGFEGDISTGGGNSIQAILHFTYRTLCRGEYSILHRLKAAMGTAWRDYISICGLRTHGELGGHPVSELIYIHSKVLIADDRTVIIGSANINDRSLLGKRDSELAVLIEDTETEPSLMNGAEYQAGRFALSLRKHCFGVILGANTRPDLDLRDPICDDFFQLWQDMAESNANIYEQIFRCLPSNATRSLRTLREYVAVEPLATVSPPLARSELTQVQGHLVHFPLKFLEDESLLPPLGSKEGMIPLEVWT", "test": "PLD2 inhibitor potency in cells, dose response (AID 602147);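 also: cellular assay in HEK293 cells overexpressing GFP-tagged PLD2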", "format": "functional"}}, "note": "The source made the active and inactive calls."}
{"smiles": "CC(=O)Nc1ccc(NC(=O)c2nc(S(=O)(=O)Cc3ccccc3)ncc2Cl)cc1", "values": [{"measurement": "EC50", "setting": "Protein RecA", "result": "9.36 µM (active)"}, {"measurement": "AC50", "setting": "[1]", "result": "25.9 µM (active)"}, {"measurement": "IC50", "setting": "[2]", "result": "> 20 µM (inactive)"}, {"measurement": "IC50", "setting": "CHO", "result": "6.31 µM (active)"}, {"measurement": "AC50", "setting": "[3]", "result": "15.3 µM (active)"}, {"measurement": "AC50", "setting": "[4]", "result": "6.33 µM (active)"}, {"measurement": "AC50", "setting": "[5]", "result": "12.7 µM (active)"}, {"measurement": "IC50", "setting": "Bcl-2-related protein A1", "result": "> 20 µM (inactive)"}, {"measurement": "IC50", "setting": "[6]", "result": "10.9 µM (active)"}, {"measurement": "AC50", "setting": "[7]", "result": "23.1 µM (active)"}, {"measurement": "AC50", "setting": "[8]", "result": "28.6 µM (active)"}, {"measurement": "AC50", "setting": "[9]", "result": "20.7 µM (active)"}, {"measurement": "AC50", "setting": "[10]", "result": "10.2 µM (active)"}, {"measurement": "AC50", "setting": "[11]", "result": "11.2 µM (active)"}, {"measurement": "AC50", "setting": "[12]", "result": "18.2 µM (active)"}, {"measurement": "AC50", "setting": "[13]", "result": "17.6 µM (active)"}, {"measurement": "EC50", "setting": "[14]", "result": "8.72 µM (active)"}, {"measurement": "AC50", "setting": "[15]", "result": "15.8 µM (active)"}, {"measurement": "AC50", "setting": "[16]", "result": "0.773 µM (active)"}, {"measurement": "AC50", "setting": "[17]", "result": "12.8 µM (active)"}, {"measurement": "IC50", "setting": "Beta Lactamase", "result": "7.61 µM (active)"}, {"measurement": "AC50", "setting": "[18]", "result": "30 µM (active)"}, {"measurement": "AC50", "setting": "Paired box protein Pax-8", "result": "9.86 µM (active)"}]}
{"smiles": "CCCCC(=O)N1CCN(c2ccccn2)CC1", "values": [{"measurement": "AC50", "setting": "Candida albicans [19]", "result": "0.283 µM (active)"}, {"measurement": "AC50", "setting": "Candida albicans [20]", "result": "0.73 µM (active)"}]}
{"smiles": "O=C(NCCN1CCN(c2ccncc2)CC1)c1cc2cc(F)ccc2[nH]1", "values": [{"measurement": "IC50", "setting": "Phospholipase D1", "result": "3.6 µM (active)"}, {"measurement": "IC50", "setting": "Phospholipase D2", "result": "15 µM (active)"}]}
